Key:
PAO1 [1] = experiment: Membrane depolarization assay (DiSC3(5)); format: cell-based, P. aeruginosa; details: DiSC3(5)-encapsulated PAO1 cells
Description: The interactions of DM6P with various bacterial cell membranes were first investigated through spectrometric methods. In normal cells, compartmentalization of the intracellular space by the lipid bilayer enables the maintenance of a transmembrane potential, which is necessary for regular cell division and energy production. The membrane-potential sensitive dye 3,3′-dipropylthiadicarbocyanine iodide (DiSC3(5)) accumulates within the membranes of healthy, polarized cells where its fluorescence is self-quenched. Depolarization of the membrane necessary to maintain this gradient causes the release of this dye, resulting in an increase in fluorescence intensity. […]
Determination of the extent of depolarization of bacterial cell membranes was carried out using a voltage sensitive dye DiSC3(5) (ThermoFisher, USA). The dye is able to accumulate within polarized healthy cell membranes with resulting quenched fluorescence. When the membrane is depolarized, subsequent ion permeabilization releases the dye from the membrane and gives rise to enhanced fluorescence intensity.^3 The assay was performed according to a modified protocol reported previously. […] The plate was incubated in the dark for 30 minutes, with the signal measured every 5 minutes until a stable baseline was observed. COEs were then added at varying concentrations and the fluorescence intensity was measured over time at 37° C. […]

PAO1 [2] = experiment: Live-dead staining (SYTO-9/PI) fluorescence microscopy; format: cell-based, P. aeruginosa; details: PAO1, 16 μg mL^−1 for 30 minutes
Method: Membrane damage induced by COE treatment was also confirmed by fluorescence microscopy. A combination of SYTO-9 and PI is commonly employed as a live-dead stain to distinguish cells with permeabilized membranes. […] Combined with PI, the contrast between the colours is employed as a visual indicator of membrane damage. PAO1 cells exposed to 16 μg mL^−1 of DM6P for 30 minutes were subsequently stained with both dyes and imaged directly.
Cell membrane integrity was determined using LIVE/DEAD™ BacLight™ bacterial viability kit L7007 (ThermoFisher, USA) according to the manufacturer's protocol. Bacteria cells were collected from mid-log cultures by centrifugation (7000 rpm, 10 minutes). The media was removed, and the bacteria was washed with PBS twice and diluted to a concentration of about 1×10^7 CFU per mL. […] A mixture of the dyes SYTO-9 and PI dissolved in DMSO were added to the suspension at final concentrations of 5 μM and 30 μM respectively. The bacteria were then incubated in the dark for 15 min. Samples were prepared by aliquoting 5 μl onto a clean glass slide, trapped with an 18 mm coverslip and imaged on an epifluorescence microscope (Leica Thunder Imager).

Question: `COc1cc(/C=C/c2ccc(OCCCCCC[P+](c3ccccc3)(c3ccccc3)c3ccccc3)c(OC)c2)ccc1OCCCCCC[P+](c1ccccc1)(c1ccccc1)c1ccccc1.[I-].[I-]` [DM6P] was tested. Which “depolarization of the bacterial membrane” value (PAO1 [1]) did it give?
Answer: The value was “dose-dependent depolarization”.

Question: What about the “PI staining in live-dead stain” value (PAO1 [2]) of the same compound?
Answer: Its value is “clear staining by PI”.
